Values of other authors in patent US9808553B2, “Haemostatic wound dressing” (Haemostatix Limited, priority 2012, dated 2017).

Target: fibrinogen (Homo sapiens, UniProt P02679)
Sequence (P02679 27-453): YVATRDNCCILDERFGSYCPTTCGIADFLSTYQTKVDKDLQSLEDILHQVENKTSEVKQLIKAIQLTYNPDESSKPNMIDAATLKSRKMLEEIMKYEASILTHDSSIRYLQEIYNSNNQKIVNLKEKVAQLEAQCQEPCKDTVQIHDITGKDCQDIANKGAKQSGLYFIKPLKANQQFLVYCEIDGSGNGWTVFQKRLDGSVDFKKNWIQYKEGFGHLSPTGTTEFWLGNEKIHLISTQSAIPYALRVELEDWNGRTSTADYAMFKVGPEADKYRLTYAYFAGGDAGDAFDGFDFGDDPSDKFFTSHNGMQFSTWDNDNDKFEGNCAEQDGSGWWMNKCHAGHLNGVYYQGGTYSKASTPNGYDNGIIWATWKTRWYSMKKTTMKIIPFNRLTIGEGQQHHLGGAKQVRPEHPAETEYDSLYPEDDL
Sequence (P02671 20-629 partner limits assumed): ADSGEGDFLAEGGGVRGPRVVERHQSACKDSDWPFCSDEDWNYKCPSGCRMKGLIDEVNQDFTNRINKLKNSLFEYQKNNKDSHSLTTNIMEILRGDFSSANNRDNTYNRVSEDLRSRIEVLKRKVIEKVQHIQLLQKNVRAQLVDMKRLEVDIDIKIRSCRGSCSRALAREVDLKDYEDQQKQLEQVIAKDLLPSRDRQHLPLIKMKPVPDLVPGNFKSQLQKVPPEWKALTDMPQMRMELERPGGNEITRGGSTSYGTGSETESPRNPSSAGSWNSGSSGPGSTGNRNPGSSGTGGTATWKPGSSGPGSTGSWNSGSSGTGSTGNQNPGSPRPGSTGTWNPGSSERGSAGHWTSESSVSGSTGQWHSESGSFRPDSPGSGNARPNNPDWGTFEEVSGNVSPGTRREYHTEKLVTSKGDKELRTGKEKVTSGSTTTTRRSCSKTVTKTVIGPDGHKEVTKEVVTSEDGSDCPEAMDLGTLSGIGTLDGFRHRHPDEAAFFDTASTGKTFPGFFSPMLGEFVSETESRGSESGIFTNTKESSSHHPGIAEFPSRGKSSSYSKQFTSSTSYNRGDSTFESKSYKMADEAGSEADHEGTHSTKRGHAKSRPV
Sequence (P02675 31-491 partner): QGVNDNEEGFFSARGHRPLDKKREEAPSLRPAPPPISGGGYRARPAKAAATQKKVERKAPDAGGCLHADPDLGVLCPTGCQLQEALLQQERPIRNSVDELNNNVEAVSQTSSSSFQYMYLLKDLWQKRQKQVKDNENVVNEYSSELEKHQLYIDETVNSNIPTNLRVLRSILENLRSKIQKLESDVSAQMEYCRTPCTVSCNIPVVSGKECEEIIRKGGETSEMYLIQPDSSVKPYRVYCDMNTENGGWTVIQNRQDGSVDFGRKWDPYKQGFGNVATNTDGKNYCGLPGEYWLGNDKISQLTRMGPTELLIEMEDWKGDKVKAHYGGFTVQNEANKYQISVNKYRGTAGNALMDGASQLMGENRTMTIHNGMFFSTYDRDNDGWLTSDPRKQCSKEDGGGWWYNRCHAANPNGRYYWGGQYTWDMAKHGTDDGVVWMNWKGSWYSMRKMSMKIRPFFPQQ

Affinity for fibrinogen versus natural cleaved sequence with valine at position four: higher affinity
Substance: GPRP
